SMILES strings stand for the structures.

For this series the following is noted: a range is the spread between reports.
As usually defined, the melting point is the temperature, or range, at which the solid turns liquid. In turn, `CCOCCOCCOCC` registered a melting point of -45 to -44 °C. Consider `CC(=O)Cl`, for which the melting point is -113 to -112 °C.

As to `O=C1C=CC(=O)N1c1ccccc1`, the melting point was in the range of 89 to 90.5 °C. The figure for `CC12CCC(=O)C=C1CCC1C2CCC2(C)C1CCC2(C)O` (centres undefined) is 163 to 164 °C. The figure for `O=C(O)COc1ccccc1Cl` is 148 to 150 °C. The figure for `COC(=O)c1cc(OC)cc(OC)c1` is 42 to 43 °C; for `COc1cccc(C(C)=O)c1` it is -8 to -7 °C; for `c1ccc2c(c1)sc1ccccc12` it is 97 to 99 °C. `O=C(Cl)N(c1ccccc1)c1ccccc1` showed a melting point of 83 to 84 °C.

Compound `COc1ccc(Br)c(OC)c1` registered a melting point of 25 to 26 °C. The figure for `COc1ccc2c(c1)c(CC(=O)O)c(C)n2C(=O)c1ccc(Cl)cc1` is 158 to 160 °C; for `ClC(Cl)(Cl)Br` it is -6 to -5.7 °C. With `Sc1nc2ccccc2[nH]1`, the melting point was 298 °C. The figure for `Cn1ccnc1S` is 146 to 147 °C.

`OCc1ccccc1` yielded a melting point of -15.2 to -15 °C. As to `Cn1c(=O)n(C)c(=O)n(C)c1=O`, the melting point is 176 °C. `COc1ccc(C(C)=O)c(O)c1`: the melting point lay within 49 to 52.5 °C. `CCCCCCCCl` came in with a melting point of -70 to -69.5 °C.

The compound `O=C(c1ccccc1)c1ccc([N+](=O)[O-])cc1` gave a melting point of 137 to 138 °C. Take `CC(=O)OC(OC(C)=O)c1ccc([N+](=O)[O-])o1`: the melting point lay within 90 to 91 °C.

In turn, `CC(=O)c1ccc(C(F)(F)F)cc1` returned a melting point of 31 to 32 °C.

Compound `BrCc1ccccc1CBr` returned a melting point of 94 to 95 °C. As for `N#CCCCl`, the melting point is -51 to -50 °C. The figure for `COc1ccc2ccccc2c1C=O` is 83 to 84 °C. The figure for `Cc1cccc(C)n1` is -7 to -6 °C; for `OCC(CO)(CO)COCC(CO)(CO)CO` it is 217 to 221 °C. The compound `CC(=O)c1ccc(-c2ccccc2)cc1` registered a melting point of 120 to 122 °C. In turn, `Cc1ccc(S(N)(=O)=O)cc1` came in with a melting point of 138 to 139 °C. Compound `CC(Br)CCCBr` (centres undefined) came in with a melting point of -34.4 to -34 °C.

Consider `NCc1cccnc1`, for which the melting point is -21.1 to -21 °C. The figure for `OCc1c(F)c(F)c(F)c(F)c1F` is 34 to 37.5 °C. In turn, `Nc1cc(Cl)ccc1O` came in with a melting point of 140 to 143 °C. The compound `CC1CCCC1` registered a melting point of -143 to -142 °C.

Turning to `c1ccc(-c2ccccc2-c2ccccc2)cc1`, the melting point lay in the range of 56 to 57 °C. On to `Oc1c(I)cc(I)cc1I`, for which the melting point lay in the range of 158 to 160 °C.

In turn, `CCOC(=O)n1ccn(C)c1=S` yielded a melting point of 124 °C. `C1=CC=CCC=C1` came in with a melting point of -80 to -79.5 °C.

As for `COc1c(F)c(F)c(F)c(F)c1F`, the melting point was -38 to -37 °C. Regarding `COc1cccc(CC(=O)O)c1`, the melting point lay in the range of 70 to 72 °C. The figure for `O=C(c1ccco1)C(O)c1ccco1` (centres undefined) is 136 to 138 °C. The figure for `COc1ccc(C=CC(=O)c2ccccc2)cc1` is 75 to 79 °C; for `Nc1ncc2ncn(COCCO)c2n1` it is 188 to 189 °C. The figure for `C=C(CC)C(=O)c1ccc(OCC(=O)O)c(Cl)c1Cl` is 121 to 122 °C; for `O=C(O)Cc1ccccc1Cl` it is 95 to 96 °C. `Oc1ccc2c(c1)CCC2` returned a melting point of 53 to 58 °C. As for `C(=C\c1ccccc1)/c1ccccc1`, the melting point is 123 to 126 °C. Turning to `O=S(=O)(c1ccc(Cl)cc1)c1ccc(Cl)cc1`, the melting point is 148 to 149 °C.

Compound `NC1CCCCC1` came in with a melting point of -18 to -17 °C. The figure for `C=CCCC=C` is -141 °C.

Take `CC(=O)NC(=O)CN`: the melting point lay in the range of 138 to 142 °C. The figure for `COC(C(=O)c1ccccc1)c1ccccc1` (centres undefined) is 47 to 49.5 °C; for `Brc1ccccc1-c1ccccc1` it is 1 to 2 °C; for `CC(=O)Nc1ccccc1[N+](=O)[O-]` it is 92 to 94 °C. The figure for `C(CC1CCNCC1)CC1CCNCC1` is 66 to 67.1 °C; for `Nc1cccc2cccc(N)c12` it is 63 to 66.5 °C; for `c1ccc(-c2ccc(-c3ccccc3)o2)cc1` it is 88 to 91 °C. For the compound `Oc1ccc(Cl)c(O)c1`, the melting point lay in the range of 106 to 107 °C. The figure for `c1ccc(CCc2ccccc2)cc1` is 51 to 55 °C. Take `CCCCCCCO`: the melting point is -36 to -33.2 °C. `CC(C)(C)c1ccc(O)c(N)c1` displayed a melting point of 161 to 163 °C. The figure for `OC(c1ccccc1)c1ccc(Cl)cc1` (centres undefined) is 60 to 60.8 °C.

As to `O=C(c1ccc(Cl)cc1)c1ccc(Cl)cc1`, the melting point was 145 to 148 °C. `C=CC#N` registered a melting point of -84 to -83.5 °C. The figure for `Cc1ccc2[nH]cnc2c1` is 112 to 116 °C. The figure for `CC(c1ccccc1)c1ccccc1` is -18 to -17.9 °C; for `CCC1=CCCC1` it is -118 °C.

For the compound `CCCCCCCCCCCCCCCCBr`, the melting point lay within 17 to 18 °C.

As to `O=C(C=CC=Cc1ccc2c(c1)OCO2)N1CCCCC1`, the melting point was in the range of 131 to 132 °C.

The compound `CCN1C(=O)c2ccccc2C1=O` registered a melting point of 76 to 79 °C. Take `COc1ccc(C(=O)O)cc1`: the melting point lay in the range of 184 to 185 °C.

With `COc1ccc(C=O)cc1`, the melting point is -1 to 1 °C. As to `O=C(O)c1ccccc1Cl`, the melting point lay in the range of 139 to 142 °C. Turning to `C=CCN`, the melting point was -88.2 to -88 °C. The figure for `O=[N+]([O-])c1cccc(S(=O)(=O)Cl)c1` is 60.9 to 61 °C. The figure for `CC=O` is -128 to -123 °C. `Oc1ccccc1-c1ccccc1`: the melting point lay within 56 to 60 °C. The figure for `O=C(O)CCCCCCCCC(=O)O` is 131 to 134 °C; for `CCCC#CC(=O)O` it is 25 to 27 °C; for `BrC(Br)Br` it is 8 to 9 °C.

In turn, `Cc1c(N)cccc1Cl` registered a melting point of 1 to 2 °C. The figure for `Nc1c(Cl)cc([N+](=O)[O-])cc1[N+](=O)[O-]` is 154 to 157 °C; for `CCCC(C)C1(CC)C(=O)NC(=O)NC1=O` (centres undefined) it is 130 °C; for `C=CCCl` it is -135 to -134 °C. In turn, `CCOCOCC` returned a melting point of -66.5 to -66 °C. The figure for `NC(=O)C(F)(F)F` is 72.5 to 73 °C. `O=C(O)c1ccc(C(=O)O)s1` showed a melting point of 358 to 359 °C. `CC(=O)OCC(C(OC(C)=O)c1ccccc1)[N+](=O)[O-]` (centres undefined) came in with a melting point of 70 to 71 °C. The figure for `O=C(O)c1cccnc1` is 237 to 238 °C; for `Cc1cc(C)cc(C)c1` it is -45 to -44.7 °C; for `O=[N+]([O-])c1c(O)cccc1O` it is 82 to 83 °C. The figure for `CCCCC(CC)COC(=O)c1ccccc1C(=O)OCC(CC)CCCC` (centres undefined) is -55 to -50 °C; for `O=C(CCl)c1ccc(Cl)cc1` it is 101 to 102 °C.

Compound `CC1CNC(C)CN1` (centres undefined) gave a melting point of 114 to 118 °C. The figure for `OCc1cccc(CO)c1` is 57 to 58 °C; for `CN1C(=O)C(=O)c2ccccc21` it is 131 to 132 °C. In turn, `O=C(O)c1cc2ccccc2o1` registered a melting point of 192 to 194 °C. The figure for `CCCCN` is -50 to -49 °C; for `O=C(O)c1cc([N+](=O)[O-])ccc1Cl` it is 166 to 167 °C; for `CC(C)(C)C(=O)CC#N` it is 68 to 71 °C. The figure for `ClCC1CC1` is -91 to -90.9 °C. Turning to `CCCCCC(=O)O`, the melting point was -4 to -1.9 °C.

With `C/C=C/c1ccc(OC)cc1`, the melting point is 21 to 23 °C. The figure for `CCOc1ccc(C(C)=O)cc1` is 37 to 39 °C; for `Oc1ccncc1` it is 145 to 150 °C; for `CC(C)(C)OC(=O)NCC(=O)O` it is 87.5 to 89 °C. In turn, `NC(=O)CCl` showed a melting point of 118 to 121 °C. The figure for `CCOC=O` is -81 to -79.6 °C.

`CC(=O)Nc1ccccc1Cl` had a melting point of 87 to 89 °C. As to `Cc1nnc(N)s1`, the melting point fell in the range of 224 to 225 °C. The compound `N#Cc1ccccc1C(N)=O` registered a melting point of 172 to 173 °C. In turn, `CC#CCC(C)C` had a melting point of -93 to -92.9 °C. Consider `COc1ccc2[nH]ccc2c1`, for which the melting point lay in the range of 54 to 57 °C. Compound `Cc1cc(O)cc(C)c1Cl` yielded a melting point of 114 to 115 °C. The figure for `CC(C)C(=O)c1ccccc1` is -1.3 to 1 °C; for `OCC(O)COc1ccc(Cl)cc1` (centres undefined) it is 78 to 80 °C.

`CCCC(=O)OCCC(C)C` displayed a melting point of -73.2 to -73 °C.

In turn, `ClCCOCCOCCCl` registered a melting point of -32 to -31.5 °C. For `c1ccc2c(c1)OCCOCCOCCOCCO2`, the melting point is 79 to 80 °C. As for `O=C(O)COc1ccc(F)cc1`, the melting point fell in the range of 104 to 105 °C. `COC(=O)c1cccc(I)c1`: the melting point fell in the range of 54 to 54.5 °C.

On to `CCCCCCCCCC#N`, for which the melting point was -17.9 to -15 °C. The compound `CC(=O)C1C(=O)C=C(C)OC1=O` (centres undefined) came in with a melting point of 109 to 111 °C. The figure for `ClC1=C(Cl)C2(Cl)C3C(Cl)C(Cl)CC3C1(Cl)C2(Cl)Cl` (centres undefined) is 104 to 106 °C.

Compound `CCCCCCCCCCCCCCCCCCCCCCCC` came in with a melting point of 51 to 54 °C.

In the case of `CC(C)(C)O`, the melting point was in the range of 25 to 26 °C. The figure for `CCCc1ccc(O)cc1` is 21 to 22 °C; for `CCOCCOCCO` it is -80 to -76 °C. With `O=[N+]([O-])c1cccs1`, the melting point was in the range of 44 to 46.5 °C. As to `Oc1ccc2cccc(O)c2c1`, the melting point fell in the range of 180 to 182 °C. The figure for `CCCc1ccccc1` is -100 to -99 °C. The figure for `O=C(c1ccccc1)c1ccc(C(F)(F)F)cc1` is 115 to 118 °C; for `ClC1=C(Cl)C2(Cl)C3C(Cl)C=CC3C1(Cl)C2(Cl)Cl` (centres undefined) it is 95 to 95.5 °C. `O=[N+]([O-])c1cccc2cccc([N+](=O)[O-])c12` had a melting point of 172 to 173 °C. `ClCc1ccccc1CCl` showed a melting point of 55 to 56 °C. The figure for `OCc1ccccc1-c1ccccc1` is 49 to 50 °C; for `O=C(O)COCC(=O)O` it is 143 to 148 °C; for `O=C(C=NO)c1ccccc1` it is 127 to 129 °C. `Cc1cc(C)nc(N)n1` had a melting point of 152 to 153 °C. The figure for `CCCC(O)CCC` is -42 to -41.2 °C.

(Values after a melting point compilation (Tetko et al.).)
